Measured values taken from PubChem BioAssay AID2060882 (Molecular Pharmacology Branch, DTP, NCI, 2025).
One block for each compound: values may come before it.

Tested on: 898857-211-R-J1-PDC complex spheroids, growth % test/control
Test: Anticancer human tumor 898857-211-R-J1-PDC patient-derived melanoma cell line growth inhibition [RAS]
Conditions: for IC50: curve of first compound; for viability, T/C: stronger effect = lower value
Text: RAS pathway inhibitors in Combinations in Complex Spheroids
A high-throughput screen of multi-cell type tumor spheroids was designed to identify active combinations of RAS pathway inhibitors and targeted small molecules. Complex spheroids include a stromal component modeled by human endothelial cells (HUVEC) and fibroblasts modeled by human mesenchymal stem cells (MSCs). The concentration ranges selected for each drug and investigational agent were based upon clinically achievable concentrations if the clinical Cmax of the agent was known.
Compounds. The drugs and investigational agents: abemaciclib (NSC768073), cobimetinib (NSC768068), divarasib (GDC6063, NSC841802), docetaxel (NSC628503), GDC-1971 (RLY-1971, NSC841576), gemcitabine (NSC613327), inavolisib (NSC800729), ipatasertib (NSC767898), KB-0742 (NSC834161), MRTX-1133 (NSC836407), osimertinib (NSC779217), RMC-4630 (NSC839698), RMC-6236 (NSC851965), RMC-6291 (NSC852671), Ro-3306 (NSC812927), sapanisertib (NSC764658), SN-38 (NSC673596), staurosporine (NSC755774), SY5609 (NSC837396), and tovorafenib (DAY101, NSC766906), were obtained from the National Cancer Institute (NCI) Developmental Therapeutics Program Chemical Repository. The FDA-approved anticancer drug set is available from the NCI Developmental Therapeutics Program. […] The stock solutions were prepared in dimethyl sulfoxide (DMSO, Sigma-Aldrich, St. Louis, MO, cat. D2650) at 800-fold the tested concentration and stored at -70 degrees C prior to their use. All drugs and investigational agents were tested over a range starting from a high concentration at or near the clinical Cmax and decreasing in half-log increments. If the clinical Cmax for an agent had not been determined, the highest concentration tested was 10 microM.
Cell Culture. All cells were maintained in an incubator at 37 degrees C and 5% CO2 with 95% humidity. The PDC lines were cultured according to standard operating procedures established by the NCI PDMR. All PDCs were thawed and cultured in Matrigel-coated flasks prepared with a working solution of 1X Ham's F-12 nutrient mix, without supplementation (Invitrogen, Waltham, MA, cat. 11765054), 100 U/mL penicillin-streptomycin (Invitrogen, cat. 15140122), and 2.5% Matrigel (Corning Inc., Corning, NY, cat. 354248) for the first three passages. The 362531-283-R-J2-PDC and 782815-120-R-J1-PDC lines were cultured in 6C/Colon 1B media, which includes advanced DMEM/F-12 (Thermo Fisher Scientific, cat. 12634028), 10 mM HEPES (Thermo Fisher Scientific, cat. 15630080), 1X GlutaMAX supplement (Thermo Fisher Scientific, cat. 35050061), 0.1 mg/mL primocin (InvivoGen, San Diego, CA, cat. ant-pm-2), 10% defined fetal bovine serum, heat inactivated (HyClone Laboratories Inc., Logan, UT, cat. SH30070.03HI), 50% L-WRN conditioned media (ATCC, cat. CRL-3276), 1.25 mM N-Acetyl-L-cysteine (Sigma-Aldrich, cat. A9165), 10 mM nicotinamide (Sigma-Aldrich, cat. N0636), 1X B-27 supplement (Thermo Fisher Scientific, cat. 17504044), 1X N-2 supplement (Thermo Fisher Scientific, cat. 17502048), 50 ng/mL human EGF (Thermo Fisher Scientific, cat. PHG0311), and 10 microM Y-27632 dihydrochloride (Tocris Bioscience, cat. 1254). The K12877-001-R-J1-PDC line was cultured in 6I media, which includes all 6C/Colon 1B media plus 10 ng/mL human FGF-10 (PeproTech, cat. 100-26), 1 ng/mL human FGF-2 (PeproTech, cat. 100-18B), 1 µM prostaglandin E2 (Tocris Bioscience, cat. 2296), […] hydrocortisone (Sigma-Aldrich, cat. H4001), and […] bovine insulin (Sigma-Aldrich, cat. I6634). The K86415-001-R-J1-PDC line was cultured in 6D media, which includes all 6C/Colon 1B media components minus the L-WRN conditioned media. The 485176-168-R4-J1-PDC was cultured in PANC media, which includes all 6C/Colon 1B media plus 100 ng/mL human FGF-10 (PeproTech, cat. 100-26), 500 nM SB-431542 (Selleckchem, cat. S1067), and 10 nM gastrin (Tocris Bioscience, cat. 3006). […]

[1] = second compound 0.00316 µM, first compound 0.0316 µM
[2] = second compound 0.00316 µM, first compound 0.1 µM
[3] = second compound 0.01 µM, first compound 0.0316 µM
[4] = second compound 0.01 µM, first compound 0.1 µM
[5] = second compound 0.0316 µM, first compound 0.0316 µM
[6] = second compound 0.0316 µM, first compound 0.1 µM
[7] = second compound 0.1 µM, first compound 0.0316 µM
[8] = second compound 0.1 µM, first compound 0.1 µM
[9] = second compound 0.316 µM, first compound 0.0316 µM
[10] = second compound 0.316 µM, first compound 0.1 µM
[11] = second compound 1 µM, first compound 0.0316 µM
[12] = second compound 1 µM, first compound 0.1 µM
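Note: spheroids exposed to compound for seven days before readout.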
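Throughout, for viability, T/C: 100% = DMSO vehicle control wells.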

IC50 (second compound 0.00316 µM): > 10000 nM | IC50 (second compound 0.01 µM): > 10000 nM | IC50 (second compound 0.0316 µM): > 10000 nM | IC50 (second compound 0.1 µM): > 10000 nM | IC50 (second compound 0.316 µM): > 10000 nM | IC50 (second compound 1 µM): > 10000 nM
SMILES: CC(Nc1ccc2c(c1)OCCn1cc(N3C(=O)OCC3C(F)F)nc1-2)C(N)=O (stereo not given) + C=CC(=O)N1CCN(c2nc(OCC3CCCN3C)nc3c(F)c(-c4nc(N)cc(C)c4C(F)(F)F)c(Cl)cc23)C(C)C1
viability, T/C [1]: 106% | viability, T/C [2]: 91.2% | viability, T/C (second compound 0.00316 µM, first compound 0.316 µM): 98.7% | viability, T/C (second compound 0.00316 µM, first compound 1 µM): 93.9% | viability, T/C (second compound 0.00316 µM, first compound 3.16 µM): 94.8% | viability, T/C (second compound 0.00316 µM, first compound 10 µM): 72.8% | viability, T/C [3]: 94.7% | viability, T/C [4]: 103% | viability, T/C (second compound 0.01 µM, first compound 0.316 µM): 93.9% | viability, T/C (second compound 0.01 µM, first compound 1 µM): 87.6% | viability, T/C (second compound 0.01 µM, first compound 3.16 µM): 95.6% | viability, T/C (second compound 0.01 µM, first compound 10 µM): 71.4% | viability, T/C [5]: 108% | viability, T/C [6]: 103% | viability, T/C (second compound 0.0316 µM, first compound 0.316 µM): 98.7% | viability, T/C (second compound 0.0316 µM, first compound 1 µM): 91.9% | viability, T/C (second compound 0.0316 µM, first compound 3.16 µM): 81.8% | viability, T/C (second compound 0.0316 µM, first compound 10 µM): 75.7% | viability, T/C [7]: 99.8% | viability, T/C [8]: 105% | viability, T/C (second compound 0.1 µM, first compound 0.316 µM): 107% | viability, T/C (second compound 0.1 µM, first compound 1 µM): 99.1% | viability, T/C (second compound 0.1 µM, first compound 3.16 µM): 87.9% | viability, T/C (second compound 0.1 µM, first compound 10 µM): 74.5% | viability, T/C [9]: 118% | viability, T/C [10]: 120% | viability, T/C (second compound 0.316 µM, first compound 0.316 µM): 108% | viability, T/C (second compound 0.316 µM, first compound 1 µM): 97% | viability, T/C (second compound 0.316 µM, first compound 3.16 µM): 94.4% | viability, T/C (second compound 0.316 µM, first compound 10 µM): 70.1% | viability, T/C [11]: 113% | viability, T/C [12]: 124% | viability, T/C (second compound 1 µM, first compound 0.316 µM): 102% | viability, T/C (second compound 1 µM, first compound 1 µM): 111% | viability, T/C (second compound 1 µM, first compound 3.16 µM): 90.1% | viability, T/C (second compound 1 µM, first compound 10 µM): 71.4%

IC50 (second compound 0.00316 µM): 28.8 nM | IC50 (second compound 0.01 µM): 33.6 nM | IC50 (second compound 0.0316 µM): 26.9 nM | IC50 (second compound 0.1 µM): 35 nM | IC50 (second compound 0.316 µM): 34.5 nM | IC50 (second compound 1 µM): 37.9 nM
SMILES: CC(C)n1nc(-c2ccc3oc(N)nc3c2)c2c(N)ncnc21 + C=CC(=O)N1CCN(c2nc(OCC3CCCN3C)nc3c(F)c(-c4nc(N)cc(C)c4C(F)(F)F)c(Cl)cc23)C(C)C1
viability, T/C (second compound 0.00316 µM, first compound 0.000316 µM): 103% | viability, T/C (second compound 0.00316 µM, first compound 0.001 µM): 96.3% | viability, T/C (second compound 0.00316 µM, first compound 0.00316 µM): 99.6% | viability, T/C (second compound 0.00316 µM, first compound 0.01 µM): 75.9% | viability, T/C [1]: 48.5% | viability, T/C [2]: 19.9% | viability, T/C (second compound 0.01 µM, first compound 0.000316 µM): 107% | viability, T/C (second compound 0.01 µM, first compound 0.001 µM): 95.1% | viability, T/C (second compound 0.01 µM, first compound 0.00316 µM): 92.1% | viability, T/C (second compound 0.01 µM, first compound 0.01 µM): 77.9% | viability, T/C [3]: 49.9% | viability, T/C [4]: 21.3% | viability, T/C (second compound 0.0316 µM, first compound 0.000316 µM): 108% | viability, T/C (second compound 0.0316 µM, first compound 0.001 µM): 99.9% | viability, T/C (second compound 0.0316 µM, first compound 0.00316 µM): 91.7% | viability, T/C (second compound 0.0316 µM, first compound 0.01 µM): 77.5% | viability, T/C [5]: 44.2% | viability, T/C [6]: 20.4% | viability, T/C (second compound 0.1 µM, first compound 0.000316 µM): 104% | viability, T/C (second compound 0.1 µM, first compound 0.001 µM): 102% | viability, T/C (second compound 0.1 µM, first compound 0.00316 µM): 97.4% | viability, T/C (second compound 0.1 µM, first compound 0.01 µM): 85% | viability, T/C [7]: 52.7% | viability, T/C [8]: 19.8% | viability, T/C (second compound 0.316 µM, first compound 0.000316 µM): 116% | viability, T/C (second compound 0.316 µM, first compound 0.001 µM): 103% | viability, T/C (second compound 0.316 µM, first compound 0.00316 µM): 109% | viability, T/C (second compound 0.316 µM, first compound 0.01 µM): 89.3% | viability, T/C [9]: 52.4% | viability, T/C [10]: 20.8% | viability, T/C (second compound 1 µM, first compound 0.000316 µM): 122% | viability, T/C (second compound 1 µM, first compound 0.001 µM): 115% | viability, T/C (second compound 1 µM, first compound 0.00316 µM): 111% | viability, T/C (second compound 1 µM, first compound 0.01 µM): 84.5% | viability, T/C [11]: 56% | viability, T/C [12]: 22.7%

SMILES: C#Cc1c(F)ccc2cc(O)cc(-c3ncc4c(N5CC6CCC(C5)N6)nc(OCC56CCCN5CC(F)C6)nc4c3F)c12 (stereo not given)
viability, T/C (compound 0.0316 µM): 105% [middle of 8 runs] | viability, T/C (compound 0.1 µM): 111% [middle of 8 runs] | viability, T/C (compound 0.316 µM): 108% [middle of 8 runs] | viability, T/C (compound 1 µM): 109% [middle of 8 runs] | viability, T/C (compound 3.16 µM): 103% [middle of 8 runs] | viability, T/C (compound 10 µM): 50.8% [middle of 8 runs]
